Data as given in patent publication US20250275975A1, “Methods of Treating Neuropathies” (Athira Pharma, Inc., priority 2023, published 2025).

Experiments:
Format in all cases: in vivo, Sprague Dawley rats
[1] = system: rat model of STZ-induced DNP; assay: Comparison of dosing schedules, thermal hyperalgesia (hot plate test), Example B2; parameters: key to Efficacy: rescue of thermal hyperalgesia behavior as measured by paw withdrawal latency: NS indicates treatment did not significantly affect paw withdrawal latency vs DNP control.; + indicates p < 0.05 vs DNP control.; ++ indicates p < 0.01 vs DNP control.; +++ indicates p < 0.001 vs DNP control; conditions: for Efficacy: rescue of thermal hyperalgesia behavior as measured by paw withdrawal latency: p vs DNP control
Description: (§1) An additional series of studies were performed to compare the ability of Compound 1a to reduce mechanical allodynia and thermal hyperalgesia pain behaviors in hyperglycemic rats dosed once or twice daily. Briefly, a single dose of STZ (55 mg/kg via intravenous (IV)) was administered to induce a Type I diabetic hyperglycemia in male Sprague Dawley rats. Hyperglycemia was confirmed 4 days after STZ administration, with blood glucose levels above 200 mg/dL considered successful model induction. Development of a painful phenotype was confirmed 14 days after STZ administration through assessments of both mechanical allodynia and thermal hyperalgesia. Starting 15 days after disease induction, Compound 1a (8 mg/kg) was orally administered once (QD) or twice (Q12h) daily from day 15 to day 41. Control groups included animals with no diabetic induction (Sham control) and animals with diabetes but treated only with formulation vehicle (DNP [diabetic peripheral neuropathy] control).
(§2) Mechanical allodynia and thermal hyperalgesia were assessed as described in Example B1. Briefly, on study days 21, 27, 35, and 41, mechanical allodynia and thermal hyperalgesia were assessed one-hour post-dose using von Frey filaments (1.4, 4, 10, 15, 26, 48, and 60 g) and the hot plate test (52.5° C.), respectively. Pain level was also measured on day 48 following a 7-day compound-free washout to evaluate the persistence of the effects of administration of Compound 1a.

STZ DNP rats [2] = assay: Thermal hyperalgesia rescue assay (hot plate paw withdrawal latency), Example B1; parameters: key to Efficacy: rescue of thermal hyperalgesia behavior as measured by paw withdrawal latency: NS indicates treatment did not significantly affect paw withdrawal latency vs disease control.; + indicates p < 0.05 vs disease control.; ++ indicates p < 0.01 vs disease control.; +++ indicates p < 0.001 vs disease control; conditions: for Efficacy: rescue of thermal hyperalgesia behavior as measured by paw withdrawal latency: study day 28 after 14 days of treatment, hot plate 52.5° C., p vs disease control
Description: (§3) A series of studies were performed to determine the ability of HGF/MET positive modulator compounds to reduce the mechanical allodynia pain behaviors in hyperglycemic rats. A single dose of STZ (55 mg/kg via intravenous (IV)) was administered to induce a Type I diabetic hyperglycemia in male Sprague Dawley rats. Hyperglycemia was confirmed 4 days after STZ administration, with blood glucose levels above 200 mg/dL considered successful model induction. 14 days after disease induction, test compound treatment was initiated and continued as daily compound administration over the remaining course of the study. Route and dose for each compound were determined by pharmacokinetic and distribution modelling. Control groups included animals with no diabetic induction (Sham control), animals with diabetes but treated only with formulation vehicle (DNP (diabetic peripheral neuropathy) control), and disease animals treated with pregabalin (30 mg/kg via PO), which is known to reduce neuropathic pain behaviors.
(§4) Changes to neuropathic pain behaviors were assessed after 14 days of compound treatment on study day 28. Mechanical allodynia was tested by placing each animal on an elevated wire grid and stimulating the plantar surface of the right rear paw with a series of filaments corresponding to increasing orders of force, reaching a maximum force of 60 grams (Aesthesio manual Von Frey filaments). The force of the filament that causes paw withdrawal was considered the paw withdrawal threshold in grams. Pain sensitivity in response to thermal hyperalgesia was determined by using hot plate method and represented as paw withdrawal latency (PWL). Rats were placed on the hot plate (52.5° C.), and the time taken to show the nocifensive behavior (either licking or jumping) of any of their paws was recorded. Statistical comparison of treatment groups to DNP control groups was performed by one-way ANOVA followed by Dunnett's multiple comparisons test.

STZ DNP rats [3] = assay: Mechanical allodynia rescue assay (Von Frey paw withdrawal threshold), Example B1; parameters: key to Efficacy: rescue of mechanical allodynia behavior as measured by paw withdrawal threshold: NS indicates treatment did not significantly affect paw withdrawal threshold vs disease control.; + indicates p < 0.05 vs disease control.; ++ indicates p < 0.01 vs disease control.; +++ indicates p < 0.001 vs disease control; conditions: for Efficacy: rescue of mechanical allodynia behavior as measured by paw withdrawal threshold: study day 28 after 14 days of treatment, p vs disease control
From the text: Hyperglycemic rats consistently develop neuropathic pain-associated behaviors including mechanical allodynia. Allodynia refers to a type of neuropathic pain characterized by increased sensitivity to stimuli that are not normally painful. Mechanical allodynia is quantified in rats by determination of the force required to induce a withdrawal of the paw and is negatively associated with allodynia such that, the lower the force required to induce paw withdrawal, the greater the pain behavior.
as §3, §4

[4] = system: rat model of STZ-induced DNP; assay: Comparison of dosing schedules, mechanical allodynia (von Frey filaments), Example B2; parameters: key to Efficacy: rescue of mechanical allodynia behavior as measured by paw withdrawal threshold: NS indicates treatment did not significantly affect paw withdrawal threshold vs DNP control.; + indicates p < 0.05 vs DNP control.; ++ indicates p < 0.01 vs DNP control.; +++ indicates p < 0.001 vs DNP control; conditions: for Efficacy: rescue of mechanical allodynia behavior as measured by paw withdrawal threshold: p vs DNP control
Description: as §1, §2

[5] = 8 mg/kg PO Q12 h from day 15 to day 41, Day 21, one-hour post-dose
[6] = 8 mg/kg PO Q12 h from day 15 to day 41, Day 27, one-hour post-dose
[7] = 8 mg/kg PO Q12 h from day 15 to day 41, Day 48, after 7-day compound-free washout
[8] = 8 mg/kg PO QD from day 15 to day 41, Day 21, one-hour post-dose
[9] = 8 mg/kg PO QD from day 15 to day 41, Day 27, one-hour post-dose
[10] = 8 mg/kg PO QD from day 15 to day 41, Day 48, after 7-day compound-free washout
[11] = 8 mg/kg PO QD or Q12h, starting on day 27
[12] = day 48, after 7-day compound-free washout

What does the source list for `CCC(C)CN1CC2N(C(=O)c3ccc(C(F)(F)F)cc3)CCC(=O)N2[C@@H](C)C1=O` (some centres unmarked) [Compound 1a]?
Efficacy: rescue of thermal hyperalgesia behavior as measured by paw withdrawal latency [1, 5]: NS; Efficacy: rescue of thermal hyperalgesia behavior as measured by paw withdrawal latency [1, 6]: + (+ indicates p < 0.05 vs DNP control.); Efficacy: rescue of thermal hyperalgesia behavior as measured by paw withdrawal latency [1, 7]: +++ (+++ indicates p < 0.001 vs DNP control.); Efficacy: rescue of thermal hyperalgesia behavior as measured by paw withdrawal latency [1, 8]: NS; Efficacy: rescue of thermal hyperalgesia behavior as measured by paw withdrawal latency [1, 9]: + (+ indicates p < 0.05 vs DNP control.); Efficacy: rescue of thermal hyperalgesia behavior as measured by paw withdrawal latency [1, 10]: +++ (+++ indicates p < 0.001 vs DNP control.); reversal of the increase in pain-related behaviors, thermal allodynia [1, 11]: effectively reversed; persistence of pain-reducing effects, thermal allodynia [1, 12]: sustained; Efficacy: rescue of thermal hyperalgesia behavior as measured by paw withdrawal latency (STZ DNP rats [2]; 0.05 mg/kg PO daily): NS; Efficacy: rescue of thermal hyperalgesia behavior as measured by paw withdrawal latency (STZ DNP rats [2]; 0.2 mg/kg PO daily): NS; Efficacy: rescue of thermal hyperalgesia behavior as measured by paw withdrawal latency (STZ DNP rats [2]; 2 mg/kg PO daily): +++ (+++ indicates p < 0.001 vs disease control.); Efficacy: rescue of thermal hyperalgesia behavior as measured by paw withdrawal latency (STZ DNP rats [2]; 8 mg/kg PO daily): +++ (+++ indicates p < 0.001 vs disease control.); rescue of thermal allodynia behavior as measured by paw withdrawal latency (STZ DNP rats [2]; STZ DNP rats): significant rescue; Efficacy: rescue of mechanical allodynia behavior as measured by paw withdrawal threshold (STZ DNP rats [3]; 0.05 mg/kg PO daily): NS; Efficacy: rescue of mechanical allodynia behavior as measured by paw withdrawal threshold (STZ DNP rats [3]; 0.2 mg/kg PO daily): NS; Efficacy: rescue of mechanical allodynia behavior as measured by paw withdrawal threshold (STZ DNP rats [3]; 2 mg/kg PO daily): +++ (+++ indicates p < 0.001 vs disease control.); Efficacy: rescue of mechanical allodynia behavior as measured by paw withdrawal threshold (STZ DNP rats [3]; 8 mg/kg PO daily): +++ (+++ indicates p < 0.001 vs disease control.); rescue of the mechanical allodynia behavior as measured by paw withdrawal threshold (STZ DNP rats [3]; STZ DNP rats): significant rescue; Efficacy: rescue of mechanical allodynia behavior as measured by paw withdrawal threshold [4, 5]: NS; Efficacy: rescue of mechanical allodynia behavior as measured by paw withdrawal threshold [4, 6]: ++ (++ indicates p < 0.01 vs DNP control.); Efficacy: rescue of mechanical allodynia behavior as measured by paw withdrawal threshold [4, 7]: +++ (+++ indicates p < 0.001 vs DNP control.); Efficacy: rescue of mechanical allodynia behavior as measured by paw withdrawal threshold [4, 8]: NS; Efficacy: rescue of mechanical allodynia behavior as measured by paw withdrawal threshold [4, 9]: ++ (++ indicates p < 0.01 vs DNP control.); Efficacy: rescue of mechanical allodynia behavior as measured by paw withdrawal threshold [4, 10]: NS; reversal of the increase in pain-related behaviors, mechanical allodynia [4, 11]: effectively reversed; persistence of pain-reducing effects, mechanical allodynia [4, 12]: sustained
